test system: RSV A2 strain; test: In vitro CPE (CytoPathic Effect) inhibition effect evaluation test, RSV type A; type: cell-based; details: human respiratory syncytial virus, HEp-2
Outline: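 EC50 is the concentration giving 50% inhibition of virus-induced cytopathic effect, fitted by nonlinear regression from CellTiter-Glo 2.0 viability. Compounds in 3-fold series were co-incubated at 37 °C with HEp-2 cells and RSV: A2 strain for 4 days, B (Wash/18537) for 5 days; uninfected wells served as control.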

SMILES	EC50
O=C(NC1(c2noc(=O)[nH]2)CCCCC1)c1cnc(N2CC3(CCOCC3)c3cc(OC4CCN(c5ncccn5)CC4)ccc32)nc1C(F)(F)F [Compound I-99]	< 10 nM

same assay, conditions: human respiratory syncytial virus; inhibitory effect against RSV type A (RSV A2 strain), HEp-2 cells, CPE inhibition; read-out: EC50

EC50	SMILES
10 to 100 nM	Cc1ccc2c(c1)C1(CCN(C(=O)OCc3ccccc3)CC1)CN2c1ncc(C(=O)NC2(C(=O)O)C3CC4CC(C3)CC2C4)c(C(F)(F)F)n1 (centres unmarked) [Compound I-132]
< 10 nM	O=C(NC1(C(=O)O)C2CC3CC(C2)CC1C3)c1ccc(-c2cn(CC3COC3)c3cc(OC4CCN(c5ncccn5)CC4)ccc23)nc1C(F)(F)F (centres unmarked) [Compound I-265]
< 10 nM	O=C(NC1(C(=O)O)C2CC3CC(C2)CC1C3)c1ccc(-c2cn(-c3ccncn3)c3cc(OC4CCN(c5ncccn5)CC4)ccc23)nc1C(F)(F)F (centres unmarked) [Compound I-197]
< 10 nM	O=C(NC1(C(=O)O)C2CC3CC(C2)CC1C3)c1cnc(-c2cn(C3CCC(F)(F)CC3)c3cc(OC4CCN(C5CCOC5)CC4)ccc23)nc1C(F)(F)F (racemic) [Compound I-277]
< 10 nM	CC(NC(=O)c1cnc(-c2cn(C3CCC(F)(F)CC3)c3cc(OC4CCN(c5ncccn5)CC4)ccc23)nc1C(F)(F)F)(C(=O)O)C1CCCCC1 (racemic) [Compound I-267]
< 10 nM	O=C(NC1(C(=O)O)C2CC3CC(C2)CC1C3)c1ccc(-c2cn(C3CCCOC3)c3cc(OC4CCN(c5ncccn5)CC4)ccc23)nc1C(F)(F)F (racemic) [Compound I-367]
< 10 nM	O=C(NC1(C(=O)O)C2CC3CC(C2)CC1C3)c1cnc(N2CC3(CCOCC3)c3cc(OC4CN(C(=O)C5COC5)C4)ccc32)nc1C(F)(F)F (centres unmarked) [Compound I-230]
10 to 100 nM	O=C(NC1(C(=O)O)CCCCC1)c1cnc(N2CCc3cc(OCCNc4ncccn4)ccc32)nc1C(F)(F)F [Compound I-52]
< 10 nM	O=C(NC1(C(=O)O)C2CC3CC(C2)CC1C3)c1cnc(N2CC3(CCOCC3)c3cc(CCCC4CCOCC4)ccc32)nc1C(F)(F)F (centres unmarked) [Compound I-114]
10 to 100 nM	Cc1cnn(CCOc2ccc3c(c2)CCN3c2ncc(C(=O)NC3(C(=O)O)CCCCC3)c(C(F)(F)F)n2)c1 [Compound I-75]
10 to 100 nM	COc1ccc(COc2ccc3c(c2)CCN3c2ncc(C(=O)NC3(C(=O)O)CCOCC3)c(C(F)(F)F)n2)cc1 [Compound I-15]
< 10 nM	CN(CC(F)(F)F)[C@H]1CC[C@@H](Oc2ccc3c(-c4ncc(C(=O)NC5(C(=O)O)C6CC7CC(C6)CC5C7)c(C(F)(F)F)n4)cn(C4CCC(F)(F)CC4)c3c2)CC1 (some centres unmarked) [Compound I-448]
10 to 100 nM	O=C(NC1(C(=O)O)C2CC3CC(C2)CC1C3)c1cnc(-c2cn(C3CCC(F)(F)CC3)c3cc(OC4CCN(C(=O)c5ncccn5)CC4)ccc23)nc1C(F)(F)F (centres unmarked) [Compound I-260]
10 to 100 nM	O=C(NC1(C(=O)O)CCC(F)(F)CC1)c1cnc(N2CCc3cc(OC4CCN(c5ncccn5)CC4)ccc32)nc1C(F)(F)F [Compound I-49]
< 10 nM	O=C(NC1(C(=O)O)C2CC3CC(C2)CC1C3)c1cnc(N2CC3(CCOCC3)c3c2cc(F)c(F)c3F)nc1C(F)(F)F (centres unmarked) [Compound I-287]
< 10 nM	O=C(NC1(C(=O)O)C2CC3CC(C2)CC1C3)c1cnc(N2CC3(CCOCC3)c3cc(O[C@H]4CC[C@@H](n5cccn5)CC4)ccc32)nc1C(F)(F)F (some centres unmarked) [Compound I-192]
< 10 nM	CC1CC(Oc2ccc3c(-c4ncc(C(=O)NC5(C(=O)O)C6CC7CC(C6)CC5C7)c(C(F)(F)F)n4)cn(C4CCC(F)(F)CC4)c3c2)CCN1CC(F)(F)F (centres unmarked) [Compound I-414]
< 10 nM	CC1CN(c2ncccn2)CCC1Oc1ccc2c(-c3ncc(C(=O)NC4(C(=O)O)C5CC6CC(C5)CC4C6)c(C(F)(F)F)n3)cn(C3CCC(F)(F)CC3)c2c1 (single isomer, unassigned) [Compound I-391]

EC50	SMILES
< 10 nM	O=C(NC1(C(=O)O)C2CC3CC(C2)CC1C3)c1cnc(-c2cn(C3CCC(F)(F)CC3)c3cc(OC4CCN(S(=O)(=O)C5CC5)CC4)ccc23)nc1C(F)(F)F (centres unmarked) [Compound I-259]
10 to 100 nM	CN(C)S(=O)(=O)NC(=O)C1(NC(=O)c2cnc(N3CCc4cc(OCCC5CCOCC5)ccc43)nc2C(F)(F)F)CCCCC1 [Compound I-35]
< 10 nM	O=C(NC1(C(=O)O)C2CC3CC(C2)CC1C3)c1cnc(-c2cn(C3CCC(F)(F)CC3)c3cc(OC4CCN(c5ncccn5)CC4F)ccc23)nc1C(F)(F)F (centres unmarked) [Compound I-371]
100 to 5000 nM	NCCc1nc(N2CCc3cc(OCCC4CCOCC4)ccc32)nc(C(F)(F)F)c1C(=O)NC1(C(=O)O)C2CC3CC(C2)CC1C3 (centres unmarked) [Compound I-167]
10 to 100 nM	CS(=O)(=O)CCN1CCC(Oc2ccc3c(-c4ncc(C(=O)NC5(C(=O)O)C6CC7CC(C6)CC5C7)c(C(F)(F)F)n4)cn(C4CCC(F)(F)CC4)c3c2)CC1 (centres unmarked) [Compound I-254]
< 10 nM	O=C(NC1(C(=O)O)C2CC3CC(C2)CC1C3)c1cnc(N2CC3(CCOCC3)c3cc(OC4CCN(c5ncc(C(F)(F)F)cn5)CC4)ccc32)nc1C(F)(F)F (centres unmarked) [Compound I-274]
< 10 nM	COc1cccc(COc2ccc3c(ccn3-c3ncc(C(=O)NC4(C(=O)O)CC5CCC4C5)c(C(F)(F)F)n3)c2)c1 (single isomer, unassigned) [Compound I-18]
< 10 nM	N#CC1(NC(=O)c2cnc(N3CC4(CCOCC4)c4cc(OC5CCN(c6ncccn6)CC5)ccc43)nc2C(F)(F)F)CCCCC1 [Compound I-94]
< 10 nM	CC1(C)CN(c2ncc(C(=O)NC3(C(=O)O)CCCCC3)c(C(F)(F)F)n2)c2ccc(OCCC3CCOCC3)cc21 [Compound I-54]
< 10 nM	O=C(NC1(C(=O)O)C2CC3CC(C2)CC1C3)c1cnc(-c2cn(C3CCC(F)(F)CC3)c3cc(O[C@H]4CCN(CC(F)(F)F)C4)ccc23)nc1C(F)(F)F (some centres unmarked) [Compound I-375]
< 10 nM	O=C(NC1(C(=O)O)C2CC3CC(C2)CC1C3)c1cnc(-c2cn(C3CCC(F)(F)CC3)c3cc(OC4CCC(N5CCC(F)(F)C5)CC4)ccc23)nc1C(F)(F)F (single isomer, unassigned) [Compound I-427]
< 10 nM	O=C(NC1(C(=O)O)C2CC3CC(C2)CC1C3)c1ccc(-c2cn([C@H]3CC[C@@H](OCc4ccccc4)CC3)c3cc(OC4CCN(c5ncccn5)CC4)ccc23)nc1C(F)(F)F (some centres unmarked) [Compound I-188]
< 10 nM	O=C(NC1(C(=O)O)CC2CCC1C2)c1cnc(N2CCc3cc(OCCC4CCOCC4)ccc32)nc1C(F)(F)F (centres unmarked) [Compound I-12]
< 10 nM	O=C(NC1(C(=O)O)C2CC3CC(C2)CC1C3)c1ccc(-c2cn(CCO)c3cc(OC4CCN(c5ncccn5)CC4)ccc23)nc1C(F)(F)F (centres unmarked) [Compound I-200]
< 10 nM	O=C(NC1(C(=O)O)C2CC3CC(C2)CC1C3)c1cnc(-c2cn(C3CCC(F)(F)CC3)c3cc(OC4CN(CC(F)(F)F)C4)ccc23)nc1C(F)(F)F (centres unmarked) [Compound I-388]
< 10 nM	O=C(NC1(C(=O)O)C2CC3CC(C2)CC1C3)c1cnc(N2CC3(CCCCC3)c3cc(OC4CCN(c5ncccn5)CC4)c(F)cc32)nc1C(F)(F)F (centres unmarked) [Compound I-394]
< 10 nM	O=C(N[C@@]1(C(=O)O)[C@@H]2C[C@@H]3C[C@H]1C[C@@](F)(C3)C2)c1cnc(N2CC3(CCOCC3)c3cc(OC4CCN(c5ncccn5)CC4)ccc32)nc1C(F)(F)F [Compound I-164]

same assay, conditions: inhibitory effect against RSV type A (RSV A2 strain), HEp-2 cells, CPE inhibition; read-out: EC50

EC50	SMILES
< 10 nM	CC(=O)N1CCC2(C1)CN(c1ncc(C(=O)NC3(C(=O)O)C4CC5CC(C4)CC3C5)c(C(F)(F)F)n1)c1ccc(OC3CCN(c4ncccn4)CC3)cc12 (racemic) [Compound I-362]
< 10 nM	O=C(NC1(C(=O)O)C2CC3CC(C2)CC1C3)c1cnc(N2CC3(CCOCC3)c3cc(C4=CCCN(c5ncccn5)C4)ccc32)nc1C(F)(F)F (centres unmarked) [Compound I-349]
< 10 nM	O=C(NC1(C(=O)O)C2CC3CC(C2)CC1C3)c1ccc(-c2cn(-c3ncccc3C(F)(F)F)c3cc(OC4CCN(c5ncccn5)CC4)ccc23)nc1C(F)(F)F (centres unmarked) [Compound I-316]
10 to 100 nM	CN(C(=O)c1ccccc1)c1ccc2c(c1)C1(CCOCC1)CN2c1ncc(C(=O)NC2(C(=O)O)C3CC4CC(C3)CC2C4)c(C(F)(F)F)n1 (centres unmarked) [Compound I-343]
< 10 nM	CC1CN(c2ncccn2)CCC1Oc1ccc2c(-c3ncc(C(=O)NC4(C(=O)O)C5CC6CC(C5)CC4C6)c(C(F)(F)F)n3)cn(C3CCC(F)(F)CC3)c2c1 (single isomer, unassigned) [Compound I-405]
< 10 nM	O=C(NC1(C(=O)O)C2CC3CC(C2)CC1C3)c1cnc(N2CC3(CCOCC3)c3cc(C=C4CCN(C(=O)OCc5ccccc5)CC4)ccc32)nc1C(F)(F)F (centres unmarked) [Compound I-111]
< 10 nM	O=C(NC1(C(=O)O)C2CC3CC(C2)CC1C3)c1ccc(-c2cn(-c3ccncc3F)c3cc(OC4CCN(c5ncccn5)CC4)ccc23)nc1C(F)(F)F (centres unmarked) [Compound I-312]
10 to 100 nM	O=C(NC1(C(=O)O)C2CC3CC(C2)CC1C3)c1cnc(N2CC3(CCOCC3)c3cc4c(cc32)OC(F)(F)O4)nc1C(F)(F)F (centres unmarked) [Compound I-299]
< 10 nM	O=C(NC1(C(=O)O)C2CC3CC(C2)CC1C3)c1ccc(-c2cn(-c3ncccc3F)c3cc(OC4CCN(c5ncccn5)CC4)ccc23)nc1C(F)(F)F (centres unmarked) [Compound I-310]
< 10 nM	O=C(NC1(C(=O)O)C2CC3CC(C2)CC1C3)c1ccc(-c2cn(-c3ccc(C(F)(F)F)cn3)c3cc(OC4CCN(c5ncccn5)CC4)ccc23)nc1C(F)(F)F (centres unmarked) [Compound I-303]
10 to 100 nM	Cn1cc2c(n1)CCN(Cc1ccc3c(c1)C1(CCOCC1)CN3c1ncc(C(=O)NC3(C(=O)O)C4CC5CC(C4)CC3C5)c(C(F)(F)F)n1)C2 (centres unmarked) [Compound I-351]
10 to 100 nM	O=C(NC1(C(=O)O)C2CC3CC(C2)CC1C3)c1cnc(N2CC3(CCOCC3)c3cc(Cc4ccccc4)ccc32)nc1C(F)(F)F (centres unmarked) [Compound I-293]

SMILES	EC50
CC(F)(F)c1nc(-c2cn(C3CCC(F)CC3)c3cc(O[C@H]4CC[C@H](N5CC(F)(F)C5)CC4)ccc23)ncc1C(=O)NC1(C(=O)O)C2CC3CC(C2)CC1C3 (single isomer, unassigned) [Compound I-571]	< 10 nM
COC1CCC(n2cc(-c3ncc(C(=O)NC4(C(=O)O)C5CC6CC(C5)CC4C6)c(C(F)(F)F)n3)c3ccc(OC4CCN(c5ncc(F)cn5)CC4)cc32)CC1 (single isomer, unassigned) [Compound I-424]	< 10 nM
